In PubChem BioAssay AID1259407 (Chemical Carcinogenesis Research Information System (CCRIS), 2018):
Entries after “also recorded” stand apart in the source; their conditions may differ. Activity calls are given as the source filed them. How the calls were made is not given here.

System: CCRIS mutagenicity, Ames/micronucleus/aberration tests
Test: CCRIS mutagenicity studies

COc1cc2c(c3oc(=O)c4c(c13)CCC4=O)[C@@H]1C=CO[C@@H]1O2
mutagenic call (Test System: AMES SALMONELLA TYPHIMURIUM, Strain/Indicator: TA100, Metabolic Activation: MOUSE, LIVER, MICROSOMES, BENZO[E]PYRENE AND TCDD, Method: STANDARD PLATE): active; positive
mutagenic call (Test System: AMES SALMONELLA TYPHIMURIUM, Strain/Indicator: TA100, Metabolic Activation: RABBIT, LUNG, CLARA CELL-RICH FRACTION, Method: PREINCUBATION): active; positive
mutagenic call (Test System: AMES SALMONELLA TYPHIMURIUM, Strain/Indicator: TA100, Metabolic Activation: RAT LIVER S-9, DELOR 103, Method: STANDARD PLATE): active; positive
mutagenic call (Test System: AMES SALMONELLA TYPHIMURIUM, Strain/Indicator: TA100, Metabolic Activation: RAT LIVER S-9, DELOREM 103, Method: STANDARD PLATE): active; positive
mutagenic call (Test System: AMES SALMONELLA TYPHIMURIUM, Strain/Indicator: TA100, Metabolic Activation: RAT, LIVER, MICROSOMES, PHENOBARBITAL, Method: STANDARD PLATE): active; positive
mutagenic call (Test System: AMES SALMONELLA TYPHIMURIUM, Strain/Indicator: TA100, Metabolic Activation: RAT, LIVER, S-9, ACRYLAMIDE, Method: STANDARD PLATE): active; positive
mutagenic call (Test System: AMES SALMONELLA TYPHIMURIUM, Strain/Indicator: TA100, Metabolic Activation: RAT, LIVER, S-9, AROCLOR 1254, Method: MICROSUSPENSION): active; positive
mutagenic call (Test System: AMES SALMONELLA TYPHIMURIUM, Strain/Indicator: TA100, Metabolic Activation: RAT, LIVER, S-9, AROCLOR 1254, Method: PREINCUBATION): active; positive
mutagenic call (Test System: AMES SALMONELLA TYPHIMURIUM, Strain/Indicator: TA100, Metabolic Activation: RAT, LIVER, S-9, AROCLOR 1254, Method: STANDARD PLATE): active; positive
mutagenic call (Test System: AMES SALMONELLA TYPHIMURIUM, Strain/Indicator: TA100, Metabolic Activation: RAT, LIVER, S-9, PHENOBARBITAL, Method: PREINCUBATION): active; positive
mutagenic call (Test System: AMES SALMONELLA TYPHIMURIUM, Strain/Indicator: TA100, Metabolic Activation: RAT, LIVER, S-9, PHENOBARBITAL, Method: STANDARD PLATE): active; positive
mutagenic call (Test System: AMES SALMONELLA TYPHIMURIUM, Strain/Indicator: TA1538, Metabolic Activation: RAT, LIVER, S-9, AROCLOR 1254, Method: STANDARD PLATE): active; positive
mutagenic call (Test System: Ames Salmonella typhimurium, Strain/Indicator: TA98, Metabolic Activation: Rat, Liver, S-9, Aroclor 1254, Method: Preincubation): active; positive (decrease in mutagenicity when 0.99-15.90 mg/plate of chloroform extrac; also recorded: active; positive (decrease in mutagenicity when 0.46-7.30 mg/plate of methanol extract o
mutagenic call (Test System: Ames Salmonella typhimurium, Strain/Indicator: TA100, Metabolic Activation: Rat, Liver, S-9, Aroclor 1254, Method: Preincubation): active; positive (decrease in mutagenicity when 0.46-7.30 mg/plate of methanol extract o
mutagenic call (Test System: CHINESE HAMSTER V-79, Strain/Indicator: V-79/6-THIOGUANINE, Metabolic Activation: NONE, Method: STANDARD PLATE): inactive; negative
mutagenic call (Test System: CHINESE HAMSTER V-79, Strain/Indicator: V-79/6-THIOGUANINE, Metabolic Activation: RAT, HEPATOCYTES, BUTYLATED HYDROXYANISOLE, Method: STANDARD PLATE): active; positive
mutagenic call (Test System: CHINESE HAMSTER V-79, Strain/Indicator: V-79/6-THIOGUANINE, Metabolic Activation: RAT, HEPATOCYTES, Method: STANDARD PLATE): active; positive
mutagenic call (Test System: CHINESE HAMSTER V-79, Strain/Indicator: V-79/6-THIOGUANINE, Metabolic Activation: RAT, LIVER, S-9, PHENOBARBITAL, Method: STANDARD PLATE): active; positive
mutagenic call (Test System: CHINESE HAMSTER V-79, Strain/Indicator: V-79/OUABAIN, Metabolic Activation: CELL-MEDIATED, Method: STANDARD PLATE): active; positive
mutagenic call (Test System: CHINESE HAMSTER V-79, Strain/Indicator: V-79/OUABAIN, Metabolic Activation: NONE, Method: STANDARD PLATE): inactive; negative
mutagenic call (Test System: CHINESE HAMSTER V-79, Strain/Indicator: V-79/OUABAIN, Metabolic Activation: RAT, HEPATOCYTES, BUTYLATED HYDROXYANISOLE, Method: STANDARD PLATE): active; positive
mutagenic call (Test System: CHINESE HAMSTER V-79, Strain/Indicator: V-79/OUABAIN, Metabolic Activation: RAT, HEPATOCYTES, Method: STANDARD PLATE): active; positive
mutagenic call (Test System: UDS GUINEA PIG HEPATOCYTES, Strain/Indicator: THY INCORP, Metabolic Activation: NONE, Method: AUTORADIOGRAPHY): active; positive
mutagenic call (Test System: UDS HUMAN CELLS, Strain/Indicator: THY INCORP (NON-S-PHASE), Metabolic Activation: RAT, LIVER, S-9, PHENOBARBITAL, Method: LIQUID SCINTILLATION COUNTING): active; positive
mutagenic call (Test System: UDS HUMAN FIBROBLASTS, Strain/Indicator: THY INCORP (NON-S-PHASE), Metabolic Activation: MOUSE, LIVER, S-9, Method: AUTORADIOGRAPHY): active; positive
mutagenic call (Test System: UDS HUMAN FIBROBLASTS, Strain/Indicator: THY INCORP (NON-S-PHASE), Metabolic Activation: NONE, Method: AUTORADIOGRAPHY): active; positive
mutagenic call (Test System: UDS HUMAN FIBROBLASTS, Strain/Indicator: THY INCORP (NON-S-PHASE), Metabolic Activation: NONE, Method: LIQUID SCINTILLATION COUNTING): active; positive
mutagenic call (Test System: UDS HUMAN HEPATOCYTES, Strain/Indicator: THY INCORP, Metabolic Activation: NONE, Method: AUTORADIOGRAPHY): active; positive
mutagenic call (Test System: UDS MONKEY HEPATOCYTES, Strain/Indicator: THY INCORP, Metabolic Activation: NONE, Method: AUTORADIOGRAPHY): active; positive
mutagenic call (Test System: UDS RAT HEPATOCYTES, Strain/Indicator: BROMODEOXYURIDINE INCORP, Metabolic Activation: NONE, Method: FLOW CYTOMETRIC ANALYSIS): active; positive
mutagenic call (Test System: UDS RAT HEPATOCYTES, Strain/Indicator: THY INCORP, Metabolic Activation: AROCLOR 1254, Method: AUTORADIOGRAPHY): active; positive
mutagenic call (Test System: UDS RAT HEPATOCYTES, Strain/Indicator: THY INCORP, Metabolic Activation: NONE, Method: AUTORADIOGRAPHY): active; positive
mutagenic call (Test System: UDS RAT HEPATOCYTES, Strain/Indicator: THY INCORP, Metabolic Activation: NONE, Method: LIQUID SCINTILLATION COUNTING): active; positive
mutagenic call (Test System: UDS RODENT HEPATOCYTES, Strain/Indicator: THY INCORP (NON-S-PHASE), Method: AUTORADIOGRAPHY): active; positive
mutagenic call (Test System: UDS RODENT HEPATOCYTES, Strain/Indicator: THY INCORP (NON-S-PHASE), Method: LIQUID SCINTILLATION COUNTING): active; positive
mutagenic call (Test System: UDS RODENT PRIMARY CELLS, Strain/Indicator: THY INCORP (NON-S-PHASE), Metabolic Activation: NONE, Method: AUTORADIOGRAPHY): active; positive
